According to patent publication EP1323715B1, “Inhibitors of cholesterol esterase” (The University of New Mexico, priority 1997, dated 1998):

Assays:
[1] = molecular target: T1, cholesterol esterase (CE) (Homo sapiens, UniProt P19835); assay: Kinetic inhibition studies of CE with substrate p-nitrophenylbutyrate, Dixon plots; settings: for inhibition of CE (in words): kinetic inhibition studies
T1 sequence (P19835 21-753): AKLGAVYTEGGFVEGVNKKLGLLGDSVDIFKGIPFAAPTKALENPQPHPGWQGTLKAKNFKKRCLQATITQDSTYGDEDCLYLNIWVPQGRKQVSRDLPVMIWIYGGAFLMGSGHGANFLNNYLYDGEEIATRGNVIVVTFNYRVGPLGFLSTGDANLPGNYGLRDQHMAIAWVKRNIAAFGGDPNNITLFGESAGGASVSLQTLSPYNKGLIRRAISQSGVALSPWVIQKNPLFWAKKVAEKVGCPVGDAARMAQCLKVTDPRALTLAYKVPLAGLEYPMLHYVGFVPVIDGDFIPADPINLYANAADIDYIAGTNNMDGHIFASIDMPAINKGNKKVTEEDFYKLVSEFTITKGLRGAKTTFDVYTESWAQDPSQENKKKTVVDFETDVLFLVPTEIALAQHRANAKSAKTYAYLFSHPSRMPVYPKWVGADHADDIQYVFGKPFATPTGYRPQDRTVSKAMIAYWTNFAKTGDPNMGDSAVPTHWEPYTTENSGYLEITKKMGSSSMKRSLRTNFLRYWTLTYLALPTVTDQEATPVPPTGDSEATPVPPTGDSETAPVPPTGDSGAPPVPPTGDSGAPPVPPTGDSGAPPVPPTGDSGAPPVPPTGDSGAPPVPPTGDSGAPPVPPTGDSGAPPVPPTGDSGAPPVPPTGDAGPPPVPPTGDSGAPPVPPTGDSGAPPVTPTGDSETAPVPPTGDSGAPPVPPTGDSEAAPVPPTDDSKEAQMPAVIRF

[2] = molecular target: chymotrypsin (Bos taurus, UniProt P00766); assay: Inhibition of chymotrypsin; type: biochemical
Text: Thus, the compounds of the present invention which have a saturated ring as part of the 3-substituent provide tremendous selectivity when compared to compounds where the 3-substituent includes an aromatic ring.

[3] = molecular target: T2, CE (Homo sapiens, UniProt P19835); settings: in vitro; cited from earlier work
T2 sequence (P19835 21-753): T1 sequence (P19835 21-753)

[4] = molecular target: T3, lumenal CE (Rattus norvegicus, UniProt P07882); settings: rats, single intragastric dose simultaneous with feeding of cholesterol ester; cited from earlier work
T3 construct: from tissue; host or cells: rat intestinal lumen (in vivo)
T3 sequence (P07882 21-612): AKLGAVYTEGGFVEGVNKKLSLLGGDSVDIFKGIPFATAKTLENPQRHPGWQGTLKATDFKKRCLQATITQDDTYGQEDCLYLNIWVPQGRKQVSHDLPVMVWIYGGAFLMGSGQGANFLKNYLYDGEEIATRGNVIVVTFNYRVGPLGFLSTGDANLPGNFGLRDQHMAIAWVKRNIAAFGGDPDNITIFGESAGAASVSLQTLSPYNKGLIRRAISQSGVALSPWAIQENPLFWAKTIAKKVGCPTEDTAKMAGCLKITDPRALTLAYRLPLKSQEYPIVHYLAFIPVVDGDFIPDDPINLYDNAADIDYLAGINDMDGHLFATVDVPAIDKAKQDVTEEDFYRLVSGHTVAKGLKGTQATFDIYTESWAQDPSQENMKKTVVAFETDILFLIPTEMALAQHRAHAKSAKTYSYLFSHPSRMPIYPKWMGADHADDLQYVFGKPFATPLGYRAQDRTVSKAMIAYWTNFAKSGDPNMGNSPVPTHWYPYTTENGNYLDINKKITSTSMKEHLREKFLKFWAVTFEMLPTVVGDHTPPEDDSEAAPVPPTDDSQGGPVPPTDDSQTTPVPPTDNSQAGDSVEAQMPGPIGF

[5] = rats, single intragastric dose simultaneous with feeding of cholesterol ester; cited from earlier work

## O=c1oc(Cl)ccc1CCCC1CCCCC1 [Example 4]
[1]
  inhibition of CE (in words): potent inhibitors of CE

## O=c1oc(Cl)ccc1CCC1CCCCC1 [Example 3]
[2]
  Ki: 50 µM
[1]; calculated Ki, apparent Ki from Dixon plots, equals one half of the concentration of CE used in the assay
  Ki: 0.03 µM

## O=c1oc(Cl)ccc1Cc1ccccc1 [3-benzyl-6-chloropyrone]
[3]
  half life of CE inactivation: 1.67 min
[4]
  inactivation of lumenal CE activity: 63%
[5]
  drop in cholesterol absorption: 60%

## O=c1oc(Cl)ccc1CC1CCCCC1 [Example 2]
[1]
  inhibition of CE (in words): potent inhibitors of CE
